Measurements published in PMC11414412, “Design and synthesis new indole-based aromatase/iNOS inhibitors with apoptotic antiproliferative activity” (Frontiers in Chemistry, 2024).
Read-outs that look alike come from different tables or passages of the source.

Columns and labels:
[1] = tested on: Bax; test: Bax activation assay; assay type: cell-based, human; settings: lung (A-549) cancer cells, compound at IC50
Experimental: Cells were obtained from American Type Culture Collection, cells were grown in RPMI 1640 containing 10% fetal bovine serum at 37°C, stimulated with the compounds to be tested for caspase8, and lysed with Cell Extraction Buffer. This lysate was diluted in Standard Diluent Buffer over the range of the assay and measured for human active caspase-8 content. […]
4.2.7. Bax activation assay
Bring all reagents, except the human Bax-α Standard, to room temperature for at least 30 minutes prior to opening. The human Bax-α Standard solution should not be left at room temperature for more than 10 minutes. All standards, controls and samples should be run in duplicate. Refer to the Assay Layout Sheet to determine the number of wells to be used and put any remaining wells with the desiccant back into the pouch and seal the ziploc. Store unused wells at 4 °C. Pipet 100 μL of Assay Buffer into the S0 (0 pg/mL standard) wells. Pipet 100 μL of Standards #1 through #6 into the appropriate wells. Pipet 100 μL of the Samples into the appropriate wells. Tap the plate gently to mix the contents. Seal the plate and incubate at room temperature on a plate shaker for 1 hour at ~500 rpm. Empty the contents of the wells and wash by adding 400 μL of wash solution to every well. Repeat the wash 4 more times for a total of 5 washes. After the final wash, empty or aspirate the wells and firmly tap the plate on a lint free paper towel to remove any remaining wash buffer.
Pipet 100 μL of yellow Antibody into each well, except the Blank. Seal the plate and incubate at room temperature on a plate shaker for 1 hour at ~500 rpm. Empty the contents of the wells and wash by adding 400 μL of wash solution to every well. Repeat the wash 4 more times for a total of 5 washes. After the final wash, empty or aspirate the wells and firmly tap the plate on a lint free paper towel to remove any remaining wash buffer. Add 100 μL of blue Conjugate to each well, except the Blank. Seal the plate and incubate at room temperature on a plate shaker for 30 minutes […]
Pipet 100 μL of Substrate Solution into each well. Incubate for 30 minutes at room temperature on a plate shaker at ~500 rpm. Pipet 100 μL Stop Solution to each well. Blank the plate reader against the Blank wells, read the optical density at 450 nm. Calculate the average net Optical Density (OD) bound for each standard and sample by subtracting the average Blank OD from the average OD for each standard and sample. Using linear graph paper, plot the Average Net OD for each standard versus Bax concentration in each standard. Approximate a straight line through the points.
The concentration of Bax in the unknowns can be determined by interpolation. […]

[2] = tested on: Bcl-2; test: Bcl-2 inhibition assay; assay type: cell-based, human; settings: lung (A-549) cancer cells, compound at IC50
Experimental: 4.2.8. Bcl-2 inhibition assay
Mix all reagents thoroughly without foaming before use. Wash the microwells twice with approximately 300 μL Wash Buffer per well with thorough aspiration of microwell contents between washes. Take caution not to scratch the surface of the microwells. After the last wash, empty the wells and tap microwell strips on absorbent pad or paper towel to remove excess Wash Buffer. Use the microwell strips immediately after washing or place upside down on a wet absorbent paper for not longer than 15 minutes. […] Add 100 μL of Sample […]
Diluent in duplicate to all standard wells and to the blank wells. Prepare standard (1:2 dilution) in duplicate ranging from 32 ng/mL to 0.5 ng/mL. Add 100 μL of Sample Diluent, in duplicate, to the blank wells. Add 80 μL of Sample Diluent, in duplicate, to the sample wells. Add 20 μL of each Sample, in duplicate, to the designated wells. Add 50 μL of diluted biotin-conjugate to all wells, including the blank wells. Cover with a plate cover and incubate at room temperature, on a microplate shaker at 100 rpm if available, for 2 hours. Remove plate cover and empty the wells.
Wash microwell strips 3 times as described in step 2. Add 100 μL of diluted Streptavidin-HRP to all wells, including the blank wells. Cover with a plate cover and incubate at room temperature, on a microplate shaker at 100 rpm if available, for 1 hour. Remove plate cover and empty the wells.
Wash microwell strips 3 times as described in step 2. Proceed to the next step. Pipette 100 μl of mixed TMB Substrate Solution to all wells, including the blanks. Incubate the microwell strips at room temperature (18° to 25°C) for about 15 minutes, if available on a rotator set at 100 rpm.
Avoid direct exposure to intense light. The point, at which the substrate reaction is stopped, is often determined by the ELISA reader. Many ELISA readers record absorbance only up to 2.0
O.D. Therefore, the color development within individual microwells must be watched by the person running the assay and the substrate reaction stopped before positive wells are no longer properly detectable. Stop the enzyme reaction by quickly pipetting 100 μL of Stop Solution into each well, including the blank wells. It is important that the Stop Solution is spread quickly and uniformly throughout the microwells to completely inactivate the enzyme. Results must be read immediately after the Stop Solution is added or within one hour i f the microwell strips are stored at 2 - 8°C in the dark. Read absorbance of each microwell on a spectrophotometer using 450 nm as the primary wavelength.

[3] = target: aromatase; settings: read-out: Aromatase inhibition IC50, cited from earlier work

## CN[C@@H]1C[C@H]2O[C@@](C)([C@@H]1OC)n1c3ccccc3c3c4c(c5c6ccccc6n2c5c31)C(=O)NC4 [Staurosporine, reference compound]
[1]
  Bax Conc: 288 ± 2 pg/mL
[2]
  Bcl-2 Conc: 1.00 ng/mL

## COc1ccc(S(=O)(=O)NCCc2c(C(c3ccc(O)cc3)c3[nH]c4ccccc4c3CCNS(=O)(=O)c3ccc(OC)cc3)[nH]c3ccccc23)cc1 [compound VIII]
[3]; bis-/tris-indole sulfonamide series, ref Pingaew et al., 2018
  IC50: 700 nM

## N#Cc1c(-c2ccccc2)[nH]c2ccccc12 [compound VII]
[3]; 2-aryl indole series, ref Prior et al., 2017
  IC50: 1610 nM

## O=S(=O)(Cc1ccccc1)Nc1ccc2[nH]ccc2c1 [derivative IX]
[3]; indole aryl sulfonamide series, ref Fantacuzzi et al., 2020
  IC50: 160 nM
